The values that follow come from patent US8574563B2 (Bristol-Myers Squibb Company, priority 2006, dated 2013).

In one test the test system is HCV 1b-377-neo replicon cells. The experiment in a line: HCV replicon assay, HCV 1b-377-neo replicon cells (1b FRET). It is filed as cell-based, Hepatitis C virus genotype 1b. The note with it: HCV 1b-377-neo replicon cells; HCV 1b genotype; read-out: EC50 range against HCV 1b (Table 2, Range). How it is done:
An HCV Replion assay was utilized in the present disclosure, and was prepared, conducted and validated as described in commonly owned PCT/US2006/022197 and in O'Boyle et. al. Antimicrob Agents Chemother. 2005 April; 49(4):1346-53.
HCV 1b-377-neo replicon cells were used to test the currently described compound series as well as cells resistant to compound A due to a Y2065H mutation in NS5A (described in application PCT/US2006/022197). The compounds tested were determined to have more than 10-fold less inhibitory activity on cells resistant to compound A than wild-type cells indicating a related mechanism of action between the two compound series. Thus, the compounds of the present disclosure can be effective to inhibit the function of the HCV NS5A protein and are understood to be as effective in combinations as previously described in application PCT/US2006/022197 and commonly owned WO/04014852. Further, the compounds of the present disclosure can be effective against the HCV 1b genotype. It should also be understood that the compounds of the present disclosure can inhibit multiple genotypes of HCV. […] In one embodiment compounds of the present disclosure are active against the 1a, 1b, 2a, 2b, 3a, 4a, and 5a genotypes.
Turning to `C[C@@H](O)C(=O)N1CCC[C@H]1c1ncc(-c2ccc(-c3ccc(-c4cnc([C@@H]5CCCN5C(=O)[C@@H](C)O)[nH]4)cc3)cc2)[nH]1` [Example 15, (2R,2′R)-1,1′-(4,4′-biphesnyldiylbis(1H-imidazole-5,2-diyl(2S)-2,1-pyrrolidinediyl))bis(1-oxo-2-propanol)], the half-maximal effective concentration (EC50) was 1 to 99 nM.

Staying with this test, now noted: Hepatitis C virus, HCV 1b-377-neo replicon cells; HCV 1b genotype; read-out: EC50 range against HCV 1b (Table 2, Range).
Turning to `C[C@H]1CC[C@@H](c2nc(-c3ccc(-c4ccc(-c5c[nH]c([C@@H]6CC[C@H](C)N6C(=O)Cc6ccccc6)n5)cc4)cc3)c[nH]2)N1C(=O)Cc1ccccc1` [Example M159, 4,4′-(4,4′-biphenyldiyl)bis(2-((2S,5S)-5-methyl-1-(phenylacetyl)-2-pyrrolidinyl)-1H-imidazole)], the EC50 lay within 0.001 to 0.999 nM. Regarding `COC(=O)N[C@@H](C(=O)N1CCC[C@H]1c1ncc(-c2ccc(-c3ccc(-c4cnc([C@@H]5CCCN5C(=O)C5(c6ccc(Cl)cc6)CC5)[nH]4)cc3)cc2)[nH]1)c1ccccc1` [Example 84-78, methyl ((1R)-2-((2S)-2-(5-(4′-(2-((2S)-1-((1-(4-chlorophenyl)cyclopropyl)carbonyl)-2-pyrrolidinyl)-1H-imidazol-5-yl)-4-biphenylyl)-1H-imidazol-2-yl)-1-pyrrolidinyl)-2-oxo-1-phenylethyl)carbamate], the EC50 lay in the range of 0.001 to 0.999 nM.

Consider `COC(=O)N[C@@H](C(=O)N1CCC[C@H]1c1ncc(-c2ccc(-c3ccc(-c4nc([C@@H]5CCCN5C(=O)[C@H](NC(=O)OC)c5ccccc5)[nH]c4C)cc3)cc2)[nH]1)c1ccccc1` [Example E5c, methyl ((1R)-2-((2S)-2-(4-(4′-(2-((2S)-1-((2R)-2-((methoxycarbonyl)amino)-2-phenylacetyl)-2-pyrrolidinyl)-1H-imidazol-4-yl)-4-biphenylyl)-5-methyl-1H-imidazol-2-yl)-1-pyrrolidinyl)-2-oxo-1-phenylethyl)carbamate], for which the concentration giving a half-maximal response (EC50) is 0.001 to 0.999 nM. For the compound `COC(=O)N[C@@H](C(=O)N1CCC[C@H]1c1ncc(-c2ccc(-c3ccc(-c4cnc([C@@H]5CCCN5C(=O)[C@@H]5CCC[C@H]5NC(=O)OC)[nH]4)cc3)cc2)[nH]1)c1ccccc1` [cj-110, methyl ((1R)-2-((2S)-2-(5-(4′-(2-((2S)-1-(((1R,2R)-2-((methoxycarbonyl)amino)cyclopentyl)carbonyl)-2-pyrrolidinyl)-1H-imidazol-5-yl)-4-biphenylyl)-1H-imidazol-2-yl)-1-pyrrolidinyl)-2-oxo-1-phenylethyl)carbamate], the EC50 is 0.001 to 0.999 nM. Regarding `O=C([C@@H]1CCCO1)N1CCC[C@H]1c1ncc(-c2ccc(-c3ccc(-c4cnc([C@@H]5CCCN5C(=O)[C@@H](c5ccccc5)N5CCOCC5)[nH]4)cc3)cc2)[nH]1` [Example 105, 4-((1R)-2-oxo-1-phenyl-2-((2S)-2-(5-(4′-(2-((2S)-1-((2S)-tetrahydro-2-furanylcarbonyl)-2-pyrrolidinyl)-1H-imidazol-5-yl)-4-biphenylyl)-1H-imidazol-2-yl)-1-pyrrolidinyl)ethyl)morpholine], the EC50 lay in the range of 0.001 to 0.999 nM.

Take `CCN(CC)[C@H](CC(N)=O)C(=O)N1CCC[C@H]1c1ncc(-c2ccc(-c3ccc(-c4cnc([C@@H]5CCCN5C(=O)[C@@H](NC(=O)OC)C(C)C)[nH]4)cc3)cc2)[nH]1` [Example M89, methyl ((1S)-1-(((2S)-2-(5-(4′-(2-((2S)-1-(N^2,N^2-diethyl-D-asparaginyl)-2-pyrrolidinyl)-1H-imidazol-5-yl)-4-biphenylyl)-1H-imidazol-2-yl)-1-pyrrolidinyl)carbonyl)-2-methylpropyl)carbamate]: the EC50 was 1 to 99 nM. As for `CCN(CC)[C@@H](C(=O)N1CCC[C@H]1c1ncc(-c2ccc(-c3ccc(-c4cnc([C@@H]5CCCN5C(=O)[C@H](NC(=O)OC)c5ccccc5)[nH]4)cc3)cc2)[nH]1)c1ccccc1` [Example M47, methyl ((1R)-2-((2S)-2-(5-(4′-(2-((2S)-1-((2R)-2-(diethylamino)-2-phenylacetyl)-2-pyrrolidinyl)-1H-imidazol-5-yl)-4-biphenylyl)-1H-imidazol-2-yl)-1-pyrrolidinyl)-2-oxo-1-phenylethyl)carbamate], the concentration for a half-maximal effect (EC50) was 1 to 99 nM. In the case of `CN(C)[C@@H](C(=O)N1CCC[C@H]1c1ncc(-c2ccc(-c3ccc(-c4cnc([C@@H]5CCCN5C(=O)[C@H]5CCCCN5C(=O)OC(C)(C)C)[nH]4)cc3)cc2)[nH]1)c1ccccc1` [Example 94-20, tert-butyl (2R)-2-(((2S)-2-(5-(4′-(2-((2S)-1-((2R)-2-(dimethylamino)-2-phenylacetyl)-2-pyrrolidinyl)-1H-imidazol-5-yl)-4-biphenylyl)-1H-imidazol-2-yl)-1-pyrrolidinyl)carbonyl)-1-piperidinecarboxylate], the concentration giving a half-maximal response (EC50) fell in the range of 1 to 99 nM. Regarding `CCOC(=O)N[C@@H](C)C(=O)N1CCC[C@H]1c1ncc(-c2ccc(-c3ccc(-c4cnc([C@@H]5CCCN5C(=O)[C@H](C)NC(=O)OCC)[nH]4)cc3)cc2)[nH]1` [Example M5, ethyl ((1S)-2-((2S)-2-(5-(4′-(2-((2S)-1-(N-(ethoxycarbonyl)-L-alanyl)-2-pyrrolidinyl)-1H-imidazol-5-yl)-4-biphenylyl)-1H-imidazol-2-yl)-1-pyrrolidinyl)-1-methyl-2-oxoethyl)carbamate], the EC50 was 1000 to 10000 nM. Consider `COC(=O)N[C@H]1CC[C@@H](C(=O)N2CCC[C@H]2c2ncc(-c3ccc(-c4ccc(-c5cnc([C@@H]6CCCN6C(=O)[C@H]6CC[C@@H](NC(=O)OC)CC6)[nH]5)cc4)cc3)[nH]2)CC1` [cj-150, dimethyl (4,4′-biphenyldiylbis(1H-imidazole-5,2-diyl(2S)-2,1-pyrrolidinediylcarbonylcis-4,1-cyclohexanediyl))biscarbamate], for which the half-maximal effective concentration (EC50) was 1 to 99 nM.

Regarding `COC(=O)N[C@@H](C)C(=O)N1CCC[C@H]1c1ncc(-c2ccc(-c3ccc(-c4cnc([C@@H]5CCCN5C(=O)[C@H](O)c5ccccc5)[nH]4)cc3)cc2)[nH]1` [Example M98, methyl ((1S)-2-((2S)-2-(5-(4′-(2-((2S)-1-((2R)-2-hydroxy-2-phenylacetyl)-2-pyrrolidinyl)-1H-imidazol-5-yl)-4-biphenylyl)-1H-imidazol-2-yl)-1-pyrrolidinyl)-1-methyl-2-oxoethyl)carbamate], the concentration for a half-maximal effect (EC50) is 1 to 99 nM.

For `COC(=O)N[C@@H](Cc1c[nH]c2ccccc12)C(=O)N1CCC[C@H]1c1ncc(-c2ccc(-c3ccc(-c4cnc([C@@H]5CCCN5C(=O)[C@@H](NC(=O)OC)C(C)C)[nH]4)cc3)cc2)[nH]1` [cj-99, methyl ((1S)-1-(((2S)-2-(5-(4′-(2-((2S)-1-((2S)-3-(1H-indol-3-yl)-2-((methoxycarbonyl)amino)propanoyl)-2-pyrrolidinyl)-1H-imidazol-5-yl)-4-biphenylyl)-1H-imidazol-2-yl)-1-pyrrolidinyl)carbonyl)-2-methylpropyl)carbamate], the half-maximal effective concentration (EC50) was in the range of 0.001 to 0.999 nM.

`CN(C)CC[C@H](N)C(=O)N1CCC[C@H]1c1ncc(-c2ccc(-c3ccc(-c4cnc([C@@H]5CCCN5C(=O)[C@@H](N)CCN(C)C)[nH]4)cc3)cc2)[nH]1` [cj-142, (3S,3′S)-4,4′-(4,4′-biphenyldiylbis(1H-imidazole-5,2-diyl(2S)-2,1-pyrrolidinediyl))bis(N~1~,N~1~-dimethyl-4-oxo-1,3-butanediamine)]: the EC50 lay in the range of 1000 to 10000 nM.
